Patent publication US20230116602A1, “MCL1 INHIBITORS AND USES THEREOF” (California Institute of Technology, priority 2019, published 2023)

What was measured:
[1] = biological target: MCL1 (Homo sapiens, UniProt Q07820); test: MCL1 affinity assay (competition binding, qPCR readout); settings: recombinant MCL1, 11-point 3-fold dilution series
Procedure: Recombinant MCL1, BCL2 and BCXL proteins were prepared in either an E. coli host derived from the BL21 strain or in HEK-293 cells. The recombinant proteins were subsequently tagged with DNA for qPCR detection. Streptavidin-coated magnetic beads were treated for 30 minutes at room temperature with the respective biotinylated peptide ligands for each recombinant protein to generate affinity resins for the assays. The liganded beads were blocked with excess biotin and washed with blocking buffer (SeaBlock (Pierce), 1% BSA, 0.05% Tween 20, 1 mM DTT) to remove unbound ligand and to reduce nonspecific binding. Binding reactions were assembled by combining recombinant protein, liganded affinity beads, and test compounds in 1× binding buffer (20% SeaBlock, 0.17×PBS, 0.05% Tween 20, 6 mM DTT). Test compounds were prepared as 111X stocks in 100% DMSO. The compounds were then diluted directly into the assays such that the final concentration of DMSO was 0.9%. The assay plates were incubated at room temperature with shaking for 1 hour and the affinity beads were washed with wash buffer (1×PBS, 0.05% Tween 20). The beads were then re-suspended in elution buffer (1×PBS, 0.05% Tween 20, 0.5 μM non-biotinylated affinity ligand) and incubated at room temperature with shaking for 30 minutes. The recombinant protein concentration in the eluates was measured by qPCR. Kds were determined using an 11-point 3-fold compound dilution series with three DMSO control points.

[2] = system: drug-sensitive cell lines of Table 3; test: Cell line growth retardation assay, sensitive cohort; type: cell-based, Human; settings: for IC50: Homo sapiens, 144 h, arithmetic mean of IC50s over the sensitive cohort of Table 3, 6 days growth, read-out: AvgSen IC50; for Fold Diff: average IC50 of resistant cohort divided by average IC50 of sensitive cohort
Procedure: (§1) Cells were seeded at densities of 1,000-5,000 cells per well in 48-well tissue culture plates. After a 24 h rest period, cells were treated with compound at 10 μM, 1 μM, […], 0.08 μM, 0.016 μM, and 0.0032 μM. A group of cells were treated with the vehicle in which the compound was prepared and served as a control. Prior to treatment, cells were counted and this count was used as a baseline for the calculation of growth inhibition. The cells were grown in the presence of compounds for 6 days and were counted on day 6. All cell counting was performed using a Synentec Cellavista plate imager. Growth inhibition was calculated as a ratio of cell population doublings in the presence of compound versus the absence of compound. […] IC50 values for each compound were calculated by fitting curves to data points from each dose-response assay using the Proc NLIN function in SAS for Windows version 9.2 (SAS Institute, Inc.).
(§2) Human cancer cell lines were grouped as “sensitive” or “resistant” to MCL1 inhibition based on whether their growth was retarded by AMG-176 (i.e., (1′S,11R,12S,14E,16S,16aR,18aR)-6′-Chloro-3′,4′,12,13,16,16a,17,18,18a,19-decahydro-16-methoxy-11,12-dimethyl-,Spiro[5,7-etheno-1H,11H-cyclobut[i][1,4]oxazepino[3,4-f][1,2,7]thiadiazacyclohexadecine-2(3H),1′(2′H)-naphthalen]-8(9H)-one 10,10-dioxide) or MIK665 (i.e., (R)-2-((5-(3-chloro-2-methyl-4-(2-(4-methylpiperazin-1-yl)ethoxy)phenyl)-6-(4-fluorophenyl)thieno[2,3-d]pyrimidin-4-yl)oxy)-3-(2-((2-(2-methoxyphenyl)pyrimidin-4-yl)methoxy)phenyl)propanoic acid) (data not shown; see Table 3). These sensitive and resistant cohorts were interrogated for response to each compound, and IC50S were calculated for each cell line using the same technique described above. Average IC50S for the sensitive (“AvgSen IC50”) and resistant (“AvgRes IC50”) cohorts were calculated as arithmetic means of the group, and fold differences (“Fold Diff”) between the resistant and sensitive cohorts were calculated by diving the average IC50 for the resistant cohort by the average IC50 for the sensitive cohort. “A” represents an IC50 of 1 μM or less, “B” represents an IC50 of greater than 1 μM to 5 μM, “C” represents an IC50 of greater than 5 μM, “+” represents a fold difference of 10 or more, and “−” represents a fold difference less than 10.

[3] = system: drug-resistant cell lines of Table 3; test: Cell line growth retardation assay, resistant cohort; type: cell-based, Human; settings: Homo sapiens, 144 h; arithmetic mean of IC50s over the resistant cohort of Table 3, 6 days growth; read-out: AvgRes IC50
Procedure: as §1, §2

MCL1, sequence (Q07820 whole entry): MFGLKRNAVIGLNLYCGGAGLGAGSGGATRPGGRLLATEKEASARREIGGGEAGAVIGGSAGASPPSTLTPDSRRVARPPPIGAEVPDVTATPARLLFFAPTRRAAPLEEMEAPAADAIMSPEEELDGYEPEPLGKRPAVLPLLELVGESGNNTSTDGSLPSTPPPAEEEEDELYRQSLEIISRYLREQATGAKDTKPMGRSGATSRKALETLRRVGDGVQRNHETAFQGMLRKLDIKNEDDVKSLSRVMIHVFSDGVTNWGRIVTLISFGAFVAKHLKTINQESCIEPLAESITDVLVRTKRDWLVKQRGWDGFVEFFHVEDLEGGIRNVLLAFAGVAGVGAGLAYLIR

| SMILES | Kd [1] | IC50 [2] | Fold Diff [2] | IC50 [3] |
| --- | --- | --- | --- | --- |
| Cc1c(-c2c(C3CCC3)ncc3snc(O[C@H](Cc4ccccc4OCc4ccnc(C5CCC5)n4)C(=O)O)c23)ccc(OCCN2CCN(C)CC2)c1Cl (atropisomer, axis not shown) [Compound 104] | 101 to 500 nM | 1000 to 5000 nM | − (“−” represents a fold difference less than 10) | > 5 µM |
| Cc1c(-c2c(C3CCC3)ncc3snc(O[C@H](Cc4ccccc4OCc4ccnc(-c5cccc(OC(F)(F)F)c5)n4)C(=O)O)c23)ccc(OCCN2CCN(C)CC2)c1Cl (atropisomer, axis not shown) [Compound 117] | 101 to 500 nM | 1000 to 5000 nM | − (“−” represents a fold difference less than 10) | > 5 µM |
| COc1ncccc1-c1nccc(COc2ccccc2C[C@@H](Oc2nsc3cnc(-c4cccc(F)c4)c(-c4ccc(OCCN5CCN(C)CC5)c(Cl)c4C)c23)C(=O)O)n1 (atropisomer, axis not shown) [Compound 64] | 101 to 500 nM | > 5000 nM | − (“−” represents a fold difference less than 10) | > 5 µM |
| COc1ccccc1-c1nccc(COc2ccccc2C[C@@H](Oc2nsc3cnc(C4CCC4)c(-c4ccc(OCCN5CCN(C)CC5)c(Cl)c4C)c23)C(=O)O)n1 (atropisomer, axis not shown) [Compound 36] | ≤ 100 nM | ≤ 1000 nM | + (“+” represents a fold difference of 10 or more) | > 5 µM |
| CCOc1cc(-c2ncc3snc(O[C@H](Cc4ccccc4OCc4ccnc(-c5ccccc5OC)n4)C(=O)O)c3c2-c2ccc(OCCN3CCN(C)CC3)c(Cl)c2C)ccn1 (atropisomer, axis not shown) [Compound 32] | ≤ 100 nM | ≤ 1000 nM | + (“+” represents a fold difference of 10 or more) | > 5 µM |
| Cc1c(-c2c(C3CCC3)ncc3snc(O[C@H](Cc4ccccc4OCc4ccnc(C5CCC(F)(F)CC5)n4)C(=O)O)c23)ccc(OCCN2CCN(C)CC2)c1Cl (atropisomer, axis not shown) [Compound 110] | ≤ 100 nM | ≤ 1000 nM | + (“+” represents a fold difference of 10 or more) | > 5 µM |
| Cc1c(-c2c(C3CCC3)ncc3snc(O[C@H](Cc4ccccc4OCc4ccnc(-c5ccncc5)n4)C(=O)O)c23)ccc(OCCN2CCN(C)CC2)c1Cl (atropisomer, axis not shown) [Compound 74] | > 1500 nM | > 5000 nM | − (“−” represents a fold difference less than 10) | > 5 µM |
| Cc1c(-c2c(C3CCC3)ncc3snc(O[C@H](Cc4ccccc4OCc4ccnc(-c5ccc(OCc6ccccc6)nc5)n4)C(=O)O)c23)ccc(OCCN2CCN(C)CC2)c1Cl (atropisomer, axis not shown) [Compound 113] | > 1500 nM | > 5000 nM | − (“−” represents a fold difference less than 10) | > 5 µM |
| CCn1cc(-c2ncc3snc(O[C@H](Cc4ccccc4OCc4ccnc(-c5ccccc5OC)n4)C(=O)O)c3c2-c2ccc(OCCN3CCN(C)CC3)c(Cl)c2C)cn1 (atropisomer, axis not shown) [Compound 75] | 101 to 500 nM | > 5000 nM | − (“−” represents a fold difference less than 10) | > 5 µM |
| Cc1c(-c2c(C3CCC3)ncc3snc(O[C@H](Cc4ccccc4OCc4ccnc(-c5cccc(S(C)(=O)=O)c5)n4)C(=O)O)c23)ccc(OCCN2CCN(C)CC2)c1Cl (atropisomer, axis not shown) [Compound 118] | ≤ 100 nM | 1000 to 5000 nM | − (“−” represents a fold difference less than 10) | > 5 µM |
| COc1ccccc1-c1nccc(COc2ccccc2C[C@@H](Oc2nsc3cnc(-c4cnc(C)o4)c(-c4ccc(OCCN5CCN(C)CC5)c(Cl)c4C)c23)C(=O)O)n1 (atropisomer, axis not shown) [Compound 77] | ≤ 100 nM | 1000 to 5000 nM | − (“−” represents a fold difference less than 10) | > 5 µM |
| COc1ccccc1-c1nccc(COc2ccccc2C[C@@H](Oc2nsc3cnc(-c4cc(F)c(F)c(F)c4)c(-c4ccc(OCCN5CCN(C)CC5)c(Cl)c4C)c23)C(=O)O)n1 (atropisomer, axis not shown) [Compound 84] | ≤ 100 nM | ≤ 1000 nM | + (“+” represents a fold difference of 10 or more) | > 5 µM |
| Cc1c(-c2c(C3CCC3)ncc3snc(O[C@H](Cc4ccccc4OCc4ccnc(-c5cccc(-c6ccn(C)n6)c5)n4)C(=O)O)c23)ccc(OCCN2CCN(C)CC2)c1Cl (atropisomer, axis not shown) [Compound 121] | – | ≤ 1000 nM | + (“+” represents a fold difference of 10 or more) | > 5 µM |
| COc1ccccc1-c1nccc(COc2ccccc2C[C@@H](Oc2nsc3cnc(C4CCC4)c(-c4ccc(OC)c(Cl)c4C)c23)C(=O)O)n1 (atropisomer, axis not shown) [Compound 107] | ≤ 100 nM | > 5000 nM | − (“−” represents a fold difference less than 10) | > 5 µM |
| Cc1c(-c2cc(-n3c(=O)n(C)c4cc(Cl)ccc43)cc3snc(O[C@H](Cc4ccccc4OCc4ccnn4CC(F)(F)F)C(=O)O)c23)ccc(OCCN2CCN(C)CC2)c1Cl [Compound 99] | > 1500 nM | > 5000 nM | − (“−” represents a fold difference less than 10) | > 5 µM |
| COc1ccccc1-c1nccc(COc2ccccc2C[C@@H](Oc2nsc3cnc(C4CCC4)c(-c4ccc(OCCN5CCN(C)CC5)c(Cl)c4C)c23)C(=O)CCc2oc(=O)oc2C)n1 (atropisomer, axis not shown) [Compound 120] | – | ≤ 1000 nM | + (“+” represents a fold difference of 10 or more) | > 5 µM |
| Cc1c(-c2c(C3CCC3)ncc3snc(O[C@H](Cc4ccccc4OCc4ccnc(-c5ccc(N6CCOCC6)cc5)n4)C(=O)O)c23)ccc(OCCN2CCN(C)CC2)c1Cl (atropisomer, axis not shown) [Compound 123] | – | ≤ 1000 nM | + (“+” represents a fold difference of 10 or more) | > 5 µM |
| COc1cccc(-c2ncc3snc(O[C@H](Cc4ccccc4OCc4ccnc(-c5ccccc5OC)n4)C(=O)O)c3c2-c2ccc(OCC3CCCN3C)c(Cl)c2C)c1 (stereo partly shown) [Compound 48] | – | ≤ 1000 nM | + (“+” represents a fold difference of 10 or more) | > 5 µM |
| Cc1c(-c2c(C3CCC3)ncc3snc(O[C@H](Cc4ccccc4OCc4ccnc(-c5ccc(C(=O)N6CCC6)cc5)n4)C(=O)O)c23)ccc(OCCN2CCN(C)CC2)c1Cl (atropisomer, axis not shown) [Compound 122] | – | ≤ 1000 nM | + (“+” represents a fold difference of 10 or more) | > 5 µM |
| Cc1c(-c2c(-c3ccc4sccc4c3)ncc3snc(O[C@H](Cc4ccccc4OCc4ccnn4CC(F)(F)F)C(=O)O)c23)ccc(OCCN2CCN(C)CC2)c1Cl (atropisomer, axis not shown) [Compound 8] | > 1500 nM | – | – | – |
| CCOC(=O)[C@@H](Cc1ccccc1OCc1ccnc(-c2ccccc2OC)n1)Oc1nsc2cnc(C3CCC3)c(-c3ccc(OCCN4CCN(C)CC4)c(Cl)c3C)c12 [Compound 103] | > 1500 nM | – | – | – |
